In brackets after ≈: the same amount, converted by molar mass. Where two headings read alike, the source gives them in different places.

The subject of assay [1] is Mycobacterium tuberculosis H37Ra (ATCC 25177). The experiment in a line: In vitro anti-tubercular activity by XTT Reduction Menadione assay (XRMA). In kind it is cell-based. The conditions noted are these: 192 h, read-out: Mycobacterium tuberculosis H37Ra (ATCC 25177) IC50. Here is the method: All the synthesized compounds 6a–j were screened for their in vitro anti-tubercular activity against MTB H37Ra (ATCC 25177). Rifampicin was used as a positive control.
In Vitro Anti-Tubercular Activity by the XTT Reduction Menadione Assay (XRMA) Method
Mycobacterium tuberculosis H37Ra (ATCC 25177) strains were obtained from AstraZeneca, India. The stock culture was maintained at −80 °C and subcultured once in a liquid M. pheli medium which contained 0.5 g KH2PO4, 0.25 g trisodium citrate, 60 mg MgSO4, 0.5 gm asparagine, and 2 mL glycerol in distilled water (100 mL) followed by pH adjustment to 6.6. Bacilli stock cultures were grown in M. pheli medium at 37 °C with continuous agitation at 150 RPM;, it takes at least 8–10 days for OD 1 at 620 nm. Stock solutions (10 mg/mL) of all the synthesized compounds were prepared in DMSO and were evaluated for in vitro anti-tubercular activity against Mycobacterium tuberculosis H37Ra (ATCC 25177) in a liquid medium using an established XTT Reduction Menadione assay (XRMA) method. Briefly, the 96 wells plate received 248.5 μL of M. Pheli medium consisting of bacilli and 2.5 μL of test solutions in serial dilution (12.5, 6.25, 3.125, 1.5625, 0.78 μg/mL). The plates were sealed with a 96-well sealing sheet and incubated at 37 °C for 8 days. Post incubation, XRMA was carried out to estimate viable cells present in different wells of the assay plate. The absorbance was read on a micro plate reader (Spectramax plus384 plate reader, Molecular Devices Inc., San Jose, CA, USA) at 470 nm filter against a blank prepared from cell-free wells. Absorbance given by cells treated with the vehicle alone was taken as 100% cell growth. MIC and IC50 values of compounds were calculated by using Origin 6 software. Percent inhibition was calculated by using following formula:% Inhibition = [(absorbance of Control − absorbance of Test)/(absorbance of Control − absorbance of Blank)] × 100(1) where control is the medium with bacilli along with vehicle and blank is cell-free medium. The drug in clinical use, rifampicin was used as a reference.
(In general: Tetrazolium dyes change colour on reduction, which living cells bring about.)

Assay [2] has as its system human cervical cancer cell line HeLa. The experiment in a line: In vitro cytotoxicity by MTT assay. In kind it is cell-based. The conditions noted are these: 48 h, concentration range 100–0.1 μg/mL, read-out: Hela Cells IC50. The procedure:
To lowers the failure of potential therapeutics at later stages of clinical trials toxicity analysis of synthesized compounds at the early stage of research work plays a very important role. To examine the safety of the synthesized compounds, 6a–j were evaluated for their toxicity against human cervical cancer cell line HeLa using the concentration range between 100–0.1 μg/mL.
All the synthesized compounds were tested for their cytotoxicity by a modified MTT assay as described previously. Briefly, cells were seeded at the density of 1 × 10^5 cells/mL in a 96-well plate. The plates were incubated overnight in CO2 incubator (37 °C under 5% CO2 and 95% air in a humidified atmosphere). Next day, cells were treated with synthesized compounds at 10-fold dilution (100–0.1 µg/mL) and incubated for an additional 48 h. Paclitaxel was used as positive control. Post incubation, cell medium was replaced with MTT (0.5 mg/mL)-PBS medium and incubated for 2–4 h to form the reduced MTT or Formazan crystals. This reduced MTT or Formazan crystals were solubilized by addition of 100 µL of SDS-DMF (20% SDS in 50% DMF). The optical density was read on a microplate reader (Spectramax plus 384 plate reader, Molecular Devices Inc.) at 570 nm filter against a blank prepared from cell-free wells. Absorbance given by cells treated with the vehicle alone was taken as 100% cell growth. IC50 and MIC values were calculated from graphs, using Origin Pro software. Where DMSO treated culture cells is control and culture medium without cells is blank. The percent cytotoxicity in the presence of test fractions was calculated by the following formula:Percent cytotoxicity = [(average absorbance of control − absorbance of a compound)/(absorbance of control − absorbance of blank)] × 100(2)

Where [3] appears, read: XRMA, 8 days incubation at 37 °C, liquid M. pheli medium.

The term IC50 denotes the point on the concentration scale where inhibition reaches its midpoint. With `O=C(NN1C(=O)C(Cl)C1c1ccc(O)cc1)c1ccc(OCc2ccccc2)cc1` (stereo not shown) [Derivative 6a, 4-(Benzyloxy)-N-(3-chloro-2-(4-hydroxyphenyl)-4-oxoazetidin-1-yl) benzamide], the 50% inhibitory concentration (IC50) in assay [1] (setting [3]) was determined as 0.652 µg/mL (≈ 1.54 µM); in assay [2], 82.6 µg/mL (≈ 195 µM).
The like results for `O=C(NN1C(=O)C(Cl)C1c1ccc(F)cc1)c1ccc(OCc2ccccc2)cc1` (stereo not shown) [Derivative 6c, 4-(Benzyloxy)-N-(3-chloro-2-(4-fluorophenyl)-4-oxoazetidin-1-yl) benzamide] were, in that order, 0.85 µg/mL (≈ 2 µM) and 31.6 µg/mL (≈ 74.4 µM).
With `COc1cc(C2C(Cl)C(=O)N2NC(=O)c2ccc(OCc3ccccc3)cc2)ccc1O` (stereo not shown) [Derivative 6g, 4-(Benzyloxy)-N-(3-chloro-2-(4-hydroxy-3-methoxyphenyl)-4-oxoazetidin-1-yl) benzamide], the IC50 in assay [1] (setting [3]) was 0.718 µg/mL (≈ 1.59 µM); in assay [2], over 100 µg/mL.
Regarding `O=C(NN1C(=O)C(Cl)C1c1ccc(OCc2ccccc2)cc1)c1ccc(OCc2ccccc2)cc1` (stereo not shown) [Derivative 6i, 4-(Benzyloxy)-N-(2-(4-(benzyloxy)phenyl)-3-chloro-4-oxoazetidin-1-yl) benzamide], the values for the IC50 in assay [1] (setting [3]) and in assay [2] were 1.31 µg/mL (≈ 2.55 µM) and 89.2 µg/mL (≈ 174 µM), respectively.
Turning to `COc1ccc(C2C(Cl)C(=O)N2NC(=O)c2ccc(OCc3ccccc3)cc2)cc1` (stereo not shown) [Derivative 6b, 4-(Benzyloxy)-N-(3-chloro-2-(4-methoxyphenyl)-4-oxoazetidin-1-yl) benzamide], the IC50 amounted to 0.918 µg/mL (≈ 2.1 µM) in assay [1] (setting [3]) and 54.9 µg/mL (≈ 126 µM) in assay [2].
As for `O=C(NN1C(=O)C(Cl)C1c1cccs1)c1ccc(OCc2ccccc2)cc1` (stereo not shown) [Derivative 6j, 4-(Benzyloxy)-N-(3-chloro-2-oxo-4-(thiophen-2-yl)azetidin-1-yl) benzamide], the IC50 in assay [1] (setting [3]) came to 0.786 µg/mL (≈ 1.9 µM); in assay [2], 33.2 µg/mL (≈ 80.4 µM).
Consider `CO[C@H]1/C=C/O[C@@]2(C)Oc3c(C)c(O)c4c(O)c(c(/C=N/N5CCN(C)CC5)c(O)c4c3C2=O)NC(=O)/C(C)=C\C=C\[C@H](C)[C@H](O)[C@@H](C)[C@@H](O)[C@@H](C)[C@H](OC(C)=O)[C@@H]1C` [Rifampicin, reference compound], for which the IC50 in assay [1] stood at 0.004 µg/mL (≈ 0.00486 µM).
As to `O=C(NN1C(=O)C(Cl)C1c1ccc(Cl)cc1)c1ccc(OCc2ccccc2)cc1` (stereo not shown) [Derivative 6d, 4-(Benzyloxy)-N-(3-chloro-2-(4-chlorophenyl)-4-oxoazetidin-1-yl) benzamide], the IC50 in assay [1] (setting [3]) is 1.34 µg/mL (≈ 3.04 µM); in assay [2], 70.4 µg/mL (≈ 159 µM).
With `CC(=O)O[C@H]1C(=O)[C@@]2(C)[C@H]([C@H](OC(=O)c3ccccc3)[C@]3(O)C[C@H](OC(=O)[C@H](O)[C@@H](NC(=O)c4ccccc4)c4ccccc4)C(C)=C1C3(C)C)[C@]1(OC(C)=O)CO[C@@H]1C[C@@H]2O` [Paclitaxel, reference compound], in assay [2], the IC50 came to 0.0056 µg/mL (≈ 0.00656 µM).
Take `COc1ccc(C2C(Cl)C(=O)N2NC(=O)c2ccc(OCc3ccccc3)cc2)cc1OC` (stereo not shown) [Derivative 6f, 4-(Benzyloxy)-N-(3-chloro-2-(3,4-dimethoxyphenyl)-4-oxoazetidin-1-yl) benzamide]: the IC50 in assay [1] (setting [3]) was determined as 1.72 µg/mL (≈ 3.67 µM); in assay [2], 44.1 µg/mL (≈ 94.4 µM).
For `CCOc1cc(C2C(Cl)C(=O)N2NC(=O)c2ccc(OCc3ccccc3)cc2)ccc1O` (stereo not shown) [Derivative 6h, 4-(Benzyloxy)-N-(3-chloro-2-(3-ethoxy-4-hydroxyphenyl)-4-oxoazetidin-1-yl) benzamide], the IC50 in assay [1] (setting [3]) is 0.85 µg/mL (≈ 1.82 µM); in assay [2], over 100 µg/mL.
With `O=C(NN1C(=O)C(Cl)C1c1cccc([N+](=O)[O-])c1)c1ccc(OCc2ccccc2)cc1` (stereo not shown) [Derivative 6e, 4-(Benzyloxy)-N-(3-chloro-2-(3-nitrophenyl)-4-oxoazetidin-1-yl) benzamide], the IC50 in assay [1] (setting [3]) was 0.654 µg/mL (≈ 1.45 µM); in assay [2], over 100 µg/mL.

Source of the values: article PMC6222352, “Ultrasound Assisted Synthesis of 4-(Benzyloxy)-N-(3-chloro-2-(substitutedphenyl)-4-oxoazetidin-1-yl) Benzamide as Challenging Anti-Tubercular Scaffold” (Molecules : A Journal of Synthetic Chemistry and Natural …, 2018).
